Laboratory results taken from US7109193B2, “Tricyclic diazepines tocolytic oxytocin receptor antagonists” (Wyeth, priority 2001, dated 2006).

molecular target: T1, human oxytocin receptor (Homo sapiens, UniProt P30559); test: Oxytocin binding in Chinese Hamster Ovary cell membranes expressing human oxytocin receptors; settings: 100 nM, CHO cell membranes, [3H]oxytocin, values without parentheses, read-out: OT % inhibition @ 100% nM
T1 construct: host or cells: CHO cells (pcDNA3.1 vector)
T1 sequence (P30559 1-389): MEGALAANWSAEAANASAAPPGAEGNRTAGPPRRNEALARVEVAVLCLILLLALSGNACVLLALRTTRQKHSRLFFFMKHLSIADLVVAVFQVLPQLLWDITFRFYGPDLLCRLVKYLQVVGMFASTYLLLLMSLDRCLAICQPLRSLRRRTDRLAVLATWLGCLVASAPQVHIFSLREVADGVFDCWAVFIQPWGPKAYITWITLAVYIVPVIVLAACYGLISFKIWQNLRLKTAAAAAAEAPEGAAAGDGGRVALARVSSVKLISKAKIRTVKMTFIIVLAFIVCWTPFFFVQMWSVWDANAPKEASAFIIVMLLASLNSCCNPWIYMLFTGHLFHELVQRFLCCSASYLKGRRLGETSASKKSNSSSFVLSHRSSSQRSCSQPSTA

In order of rising inhibition at 0.1 µM:
1. COc1cc(C(=O)N2Cc3ccc(C(=O)NCCC4CCCN4C)n3Cc3ccccc32)ccc1-n1c(C)ccc1C (stereo not shown) [Example 315, 10-[4-(2,5-Dimethyl-1H-pyrrol-1-yl)-3-methoxybenzoyl]-N-[2-(1-methyl-2-pyrrolidinyl)ethyl]-10,11-dihydro-5H-pyrrolo[2,1-c][1,4]benzodiazepine-3-carboxamide]  10%
2. COc1cc(C(=O)N2Cc3ccc(C(=O)N4CCN(CCN(C)C)CC4)n3Cc3ccccc32)ccc1-n1c(C)ccc1C [Example 316, {4-[2-(Dimethylamino)ethyl]-1-piperazinyl}{10-[4-(2,5-dimethyl-1H-pyrrol-1-yl)-3-methoxybenzoyl]-10,11-dihydro-5H-pyrrolo[2,1-c][1,4]benzodiazepin-3-yl}methanone]  24%
3. COc1cc(C(=O)N2Cc3ccc(C(=O)N4CCCN(C)CC4)n3Cc3ccccc32)ccc1-n1c(C)ccc1C [Example 307, {10-[4-(2,5-Dimethyl-1H-pyrrol-1-yl)-3-methoxybenzoyl]-10,11-dihydro-5H-pyrrolo[2,1-c][1,4]benzodiazepin-3-yl}(4-methyl-1,4-diazepan-1-yl)methanone]  30%
4. C=CCN1CCN(C(=O)c2ccc3n2Cc2ccccc2N(C(=O)c2ccc(-n4c(C)ccc4C)c(OC)c2)C3)CC1 [Example 318, (4-Allyl-1-piperazinyl){10-[4-(2,5-dimethyl-1H-pyrrol-1-yl)-3-methoxybenzoyl]-10,11-dihydro-5H-pyrrolo[2,1-c][1,4]benzodiazepin-3-yl}methanone]  32%
5. COc1cc(C(=O)N2Cc3ccc(C(=O)N4CCN(CCN5CCOCC5)CC4)n3Cc3ccccc32)ccc1-n1c(C)ccc1C [Example 317, {10-[4-(2,5-Dimethyl-1H-pyrrol-1-yl)-3-methoxybenzoyl]-10,11-dihydro-5H-pyrrolo[2,1-c][1,4]benzodiazepin-3-yl}{4-[2-(4-morpholinyl)ethyl]-1-piperazinyl}methanone]  32%
6. Cc1cc(C(=O)N2Cc3cccn3Cc3ncccc32)ccc1-c1ccccc1C(F)(F)F [Example 323F, (2-Methyl-2′-trifluoromethyl-[1,1′-biphenyl]-4-yl)-(4H,10H-3a,5,9-triaza-benzo[f]azulen-9-yl)-methanone]  33%
7. COc1cc(C(=O)N2Cc3ccc(C(=O)N4CCN(C)CC4)n3Cc3ccccc32)ccc1-n1c(C)ccc1C [Example 306, {10-[4-(2,5-Dimethyl-1H-pyrrol-1-yl)-3-methoxybenzoyl]-10,11-dihydro-5H-pyrrolo[2,1-c][1,4]benzodiazepin-3-yl}(4-methyl-1-piperazinyl)methanone]  34%
8. O=C(c1ccc(-c2ccccc2)nc1)N1Cc2cccn2Cc2ccccc21 [Example 29, (6-Phenyl-pyridin-3-yl)-[10,11-dihydro-5H-pyrrolo[2,1-c][1,4]benzodiazepin-10-yl]methanone]  51%
9. COc1cc(C(=O)N2Cc3ccc(C(=O)N4CCCN(C)CC4)n3Cc3ccccc32)ccc1-c1cccc2ccccc12 [Example 68, {10-[3-Methoxy-4-(1-naphthyl)benzoyl]-10,11-dihydro-5H-pyrrolo[2,1-c][1,4]benzodiazepin-3-yl}(4-methyl-1,4-diazepan-1-yl)methanone]  64%
10. COc1ccccc1-c1ccc(C(=O)N2Cc3ccc(C(=O)N[C@@H](CCCCNC(=O)OC(C)(C)C)C(N)=O)n3Cc3ccccc32)cc1OC [Example 303, tert-Butyl (5S)-6-amino-5-[({10-[(2,2′-dimethoxy[1,1′-biphenyl]-4-yl)carbonyl]-10,11-dihydro-5H-pyrrolo[2,1-c][1,4]benzodiazepin-3-yl}carbonyl)amino]-6-oxohexylcarbamate]  66%
11. COc1ccccc1-c1ccc(C(=O)N2Cc3ccc(C(=O)N4CCN(CCCN(C)C)CC4)n3Cc3ccccc32)cc1OC [Example 254, {10-[(2,2′-Dimethoxy[1,1′-biphenyl]-4-yl)carbonyl]-10,11-dihydro-5H-pyrrolo[2,1-c][1,4]benzodiazepin-3-yl}{4-[3-(dimethylamino)propyl]-1-piperazinyl}methanone]  66%
12. COc1ccccc1-c1ccc(C(=O)N2Cc3ccc(C(=O)n4ccnc4)n3Cc3ccccc32)cc1C [Example 292, 1H-Imidazol-1-yl-{10-[(2′-methoxy-2-methyl[1,1′-biphenyl]-4-yl)carbonyl]-10,11-dihydro-5H-pyrrolo[2,1-c][1,4]benzodiazepin-3-yl}methanone]  69%
13. COc1ccccc1-c1ccc(C(=O)N2Cc3ccc(C(=O)N4CCCN(C)CC4)n3Cc3ccccc32)cc1OC [Example 69, {10-[(2,2′-Dimethoxy[1,1′-biphenyl]-4-yl)carbonyl]-10,11-dihydro-5H-pyrrolo[2,1-c][1,4]benzodiazepin-3-yl}(4-methyl-1,4-diazepan-1-yl)methanone]  71%
14. COc1cc(C(=O)N2Cc3ccc(C(=O)N(C)CCN(C)C)n3Cc3ccccc32)ccc1-n1c(C)ccc1C [Example 309, N-[2-(Dimethylamino)ethyl]-10-[4-(2,5-dimethyl-1H-pyrrol-1-yl)-3-methoxybenzoyl]-N-methyl-10,11-dihydro-5H-pyrrolo[2,1-c][1,4]benzodiazepine-3-carboxamide]  72%
15. COc1cccc(-c2ccc(C(=O)N3Cc4ccc(C(=O)N5CCCN(C)CC5)n4Cc4ccccc43)cc2OC)c1 [Example 70, {10-[(2,3′-Dimethoxy[1,1′-biphenyl]-4-yl)carbonyl]-10,11-dihydro-5H-pyrrolo[2,1-c][1,4]benzodiazepin-3-yl}(4-methyl-1,4-diazepan-1-yl)methanone]  75%
16. COc1cccc(-c2ccc(C(=O)N3Cc4ccc(C(=O)N5CCN(CCCN(C)C)CC5)n4Cc4ccccc43)cc2C)c1 [Example 248, {4-[3-(Dimethylamino)propyl]-1-piperazinyl}{10-[(3′-methoxy-2-methyl[1,1′-biphenyl]-4-yl)carbonyl]-10,11-dihydro-5H-pyrrolo[2,1-c][1,4]benzodiazepin-3-yl}methanone]  77%
17. COc1ccccc1-c1ccc(C(=O)N2Cc3ccc(C(=O)N[C@@H]4CN5CCC4CC5)n3Cc3ccccc32)cc1C [Example 295, N-[(3S)-1-Azabicyclo[2.2.2]oct-3-yl]-10-[(2′-methoxy-2-methyl[1,1′-biphenyl]-4-yl)carbonyl]-10,11-dihydro-5H-pyrrolo[2,1-c][1,4]benzodiazepine-3-carboxamide]  79%
18. COc1cccc(-c2ccc(C(=O)N3Cc4ccc(C(=O)N5CCN(CCCN(C)C)CC5)n4Cc4ccccc43)cc2OC)c1 [Example 255, {10-[(2,3′-Dimethoxy[1,1′-biphenyl]-4-yl)carbonyl]-10,11-dihydro-5H-pyrrolo[2,1-c][1,4]benzodiazepin-3-yl}{4-[3-(dimethylamino)propyl]-1-piperazinyl}methanone]  80%
19. Cc1ccccc1-c1ccc(C(=O)N2Cc3ccc(C(=O)NCCCN(C)C)n3Cc3ccccc32)cc1C [Example 73, N-[3-(Dimethylamino)propyl]-10-[(2,2′-dimethyl[1,1′-biphenyl]-4-yl)carbonyl]-10,11-dihydro-5H-pyrrolo[2,1-c][1,4]benzodiazepine-3-carboxamide]  85%
20. COc1ccccc1-c1ccc(C(=O)N2Cc3ccc(C(=O)N[C@H]4CN5CCC4CC5)n3Cc3ccccc32)cc1OC [Example 299, N-[(3R)-1-Azabicyclo[2.2.2]oct-3-yl]-10-[(2,2′-dimethoxy[1,1′-biphenyl]-4-yl)carbonyl]-10,11-dihydro-5H-pyrrolo[2,1-c][1,4]benzodiazepine-3-carboxamide]  86%
21. COc1cc(C(=O)N2Cc3ccc(C(=O)N4CCN(CCCN(C)C)CC4)n3Cc3ccccc32)ccc1-c1ccccc1C [Example 250, {4-[3-(Dimethylamino)propyl]-1-piperazinyl}{10-[(2-methoxy-2′-methyl[1,1′-biphenyl]-4-yl)carbonyl]-10,11-dihydro-5H-pyrrolo[2,1-c][1,4]benzodiazepin-3-yl}methanone]  87%
22. COc1cccc(-c2cc(OC)c(C(=O)N3Cc4ccc(C(=O)N[C@@H](Cc5c[nH]cn5)C(N)=O)n4Cc4ccccc43)cc2Cl)c1 [Example 287, N-[(1S)-2-Amino-1-(1H-imidazol-4-ylmethyl)-2-oxoethyl]-10-[(6-chloro-3,3′-dimethoxy[1,1′-biphenyl]-4-yl)carbonyl]-10,11-dihydro-5H-pyrrolo[2,1-c][1,4]benzodiazepine-3-carboxamide]  88%
23. COc1ccccc1-c1ccc(C(=O)N2Cc3ccc(C(=O)N[C@@H](Cc4c[nH]cn4)C(N)=O)n3Cc3ccccc32)cc1 [Example 285, N-[(1S)-2-Amino-1-(1H-imidazol-4-ylmethyl)-2-oxoethyl]-10-[(2′-methoxy[1,1′-biphenyl]-4-yl)carbonyl]-10,11-dihydro-5H-pyrrolo[2,1-c][1,4]benzodiazepine-3-carboxamide]  93%
24. COc1cc(C(=O)N2Cc3cccn3Cc3ccccc32)ccc1-c1ccccc1C(F)(F)F [Example 19D, (10,11-Dihydro-5H-pyrrolo[2,1-c][1,4]benzodiazepin-10-yl)-(2-methoxy-2′-trifluoromethyl-[1,1′-biphenyl]-4-yl)-methanone]  97%
25. Cc1ccccc1-c1ccc(C(=O)N2Cc3ccc(C(=O)N4CCCN(C)CC4)n3Cc3ccccc32)cc1C [Example 63, {10-[(2,2′-Dimethyl[1,1′-biphenyl]-4-yl)carbonyl]-10,11-dihydro-5H-pyrrolo[2,1-c][1,4]benzodiazepin-3-yl}(4-methyl-1,4-diazepan-1-yl)methanone]  98%
